Measured values: US6911477B2, “Muscarinic receptor agonists” (Pfizer Inc., priority 1996, dated 2005)
Counter-ions that a name gives are not always drawn.

Row | melting point | Compound
1 | 255 to 257 °C | Cc1cccc(C)c1C(=Nc1ccccc1)NC(=Nc1ccccc1)N1CCCC1 (as salt: hydroiodid) [Example 31, N-[(2,6-dimethyl-phenyl)-phenylimino-methyl]-N′-phenyl-pyrrolidine-1-carboxamidine]
2 | 212 to 214 °C (dec.) | Cc1cccc(C)c1C(=NC(=Nc1ccccc1)N1CCCCO1)Nc1ccc(F)cc1 (as salt: hydrochloride) [Example 61, N-(4-fluoro-phenyl)-2,6-dimethyl-N′-([1,2]oxazinan-2-yl-phenylimino-methyl)-benzamidine]
3 | 173 to 175 °C | Cc1ccccc1C(=NC(=Nc1ccccc1)N1CCCCC1C)Nc1ccc(F)cc1 (stereo not shown) (as salt: hydrochloride) [Example 28, N-(4-fluoro-phenyl)-2-methyl-N′-[(2-methyl-piperidin-1-yl)-phenylimino-methyl]-benzamidine]
4 | 149 to 151 °C (dec.) | Cc1cccc(C)c1C(=Nc1ccc(F)cc1)NC(=Nc1ccc(Cl)cc1)N1CCCCC1C (stereo not shown) (as salt: hydrochloride) [Example 46, N-[(4-chloro-phenylimino)-(2-methyl-piperidin-1-yl)-methyl]-N′-(4-fluoro-phenyl)-2,6-dimethyl-benzamidine]
5 | 162 to 164 °C (dec.) | Cc1cccc(C)c1C(=NC(=Nc1ccc(F)cc1)N1CCCCC1C)Nc1ccc(F)cc1 (stereo not shown) (as salt: hydrochloride) [Example 43, N-(4-fluoro-phenyl)-N′-[(4-fluoro-phenylimino)-(2-methyl-piperidin-1-yl)-methyl]-2,6-dimethyl-benzamidine]
6 | 181 to 183 °C | Cc1cccc(C)c1C(=Nc1ccc(F)cc1)NC(=Nc1ccccc1)N1CCCCC1C (stereo not shown) (as salt: hydrochloride) [Example 35, N-[(2,6-dimethyl-phenyl)-(4-fluoro-phenylimino)-methyl]-2-methyl-N′-phenyl-piperidine-1-carboxamidine]
7 | 127 to 129 °C | Cc1ccccc1C(=Nc1ccc(F)cc1)NC(=NC1CCCCC1)C1(C)CCCCC1 (as salt: hydrochloride) [Example 96, N-[cyclohexylimino-(1-methyl-cyclohexyl)-methyl]-N′-(4-fluoro-phenyl)-2-methyl-benzamidine]
8 | 137 to 139 °C (dec.) | CCC1CCCCN1C(=Nc1ccccc1)NC(=Nc1ccc(F)cc1)c1c(C)cccc1C (stereo not shown) (as salt: hydrochloride) [Example 58, N-[(2-ethyl-piperidin-1-yl)-phenylimino-methyl]-N′-(4-fluoro-phenyl)-2,6-dimethyl-benzamidine]
9 | 246 to 247 °C | c1ccc(N=C(N=C(Nc2ccccc2)c2ccccc2)N2CCCC2)cc1 (as salt: hydrochloride) [Example 1, N-Phenyl-N′-(phenylimino-pyrrolidin-1-yl-methyl)-benzamidine]
10 | 179 to 182 °C (dec.) | CC1CCCN(C(=Nc2ccccc2)NC(=Nc2ccccc2)c2ccccc2)C1 (stereo not shown) (as salt: hydroiodid) [Example 23, N-[(3-methyl-piperidin-1-yl)-phenylimino-methyl]-N′-phenyl-benzamidine]
11 | 171 to 172 °C | Cc1ccccc1C(=CC(=NC1CCCCC1)N1CCCCO1)Nc1ccc(F)cc1 (as salt: hydrochloride) [Example 95, (3-cyclohexylimino-3-[1,2]oxazinan-2-yl-1-o-tolyl-propenyl)-(4-fluoro-phenyl)-amine]
12 | 254 to 255 °C | Fc1ccccc1N=C(NC(=Nc1ccccc1)c1ccccc1)N1CCCC1 (as salt: hydrochloride) [Example 27, N-[(2-fluoro-phenylimino)-pyrrolidin-1-yl-methyl]-N′-phenyl-benzamidine]
13 | 216 to 218 °C (dec.) | c1ccc(N=C(N=C(Nc2ccccc2)c2ccccc2)N2CCSCC2)cc1 (as salt: hydroiodid) [Example 13, N-phenyl-N′-(phenylimino-thiomorpholin-4-yl-methyl)-benzamidine]
